Experimental data taken from patent publication US7235679B2, “Crystals of a vitamin D derivative and a method for the preparation thereof” (Chugai Seiyaku Kabushiki Kaisha, priority 1996, dated 2007).

Key:
Format in all cases: physicochemical
[1] = Stability test of ED-71: HPLC quantitative assay (survivability)
Method: (§1) Amorphous and crystalline ED-71 compounds were tested for stability at 10, 25 and […]. To estimate the stability, HPLC quantitative assay and absorbance and purity measurements were utilized. The purity was expressed as peak area ratio in percentage in HPLC (% P.A.R.). The test was carried out by using the following procedures:
(§2) About 2 mg portions of each of the amorphous and crystalline samples are precisely weighed into transparent 10 ml test tubes each having screw cap, individually.
(§3) The test tubes are purged with argon using a vacuum desiccator and a glove box. This purging procedure is not applied to the test tubes indicated as “1 M (air)” in the tables below.
(§4) The test tubes in groups are fixed in thermostatic baths which are respectively controlled at the above temperatures and allowed to stand in the dark. After one (1 W) or two (2 W) weeks or one month (1 M), the test tubes are removed from the baths and subjected to the following assay and measurements:
5 ml of absolute ethanol is precisely added to the test tube to form a sample solution. 1 ml of the sample solution and 1 ml of an internal standard solution are both precisely added to another test tube and the resulting mixture is diluted with methylene chloride to give a whole volume of 20 ml. This diluted solution is designated solution 1. The internal standard solution is formed by dissolving 2-aminopyrimidine in methanol to a concentration of 0.6 mg/ml.
Next, both of 1 ml of another standard solution for quantitative assay which is formed by dissolving crystalline ED-71 in absolute ethanol to a concentration of 0.4 mg/ml and 1 ml of the internal standard solution are precisely added to another test tube and the resulting mixture is diluted with methylene chloride to give a whole volume of 20 ml. This diluted solution is designated solution 2.
HPLC is carried out using 20 μl of each of solutions 1 and 2. For each solution, an area ratio of the peak of ED-71 to the peak of the internal standard substance is determined from the HPLC data. The ED-71 content in the sample is determined from the ratio of the area ratio for solution 1 to that for solution 2.
Survivability (%) is determined by dividing the ED-71 content thus obtained by ED-71 content in the same sample but prior to the above treatment. • HPLC conditions used: • Column: YMC A-004SIL (4.6×300 mm) • Mobile phase: methylene chloride/methanol mixture (95/5) • Flow rate: 1 ml/min • Detection: at UV 265 nm. (3) Absorbance Measurement

[2] = Stability test of ED-71: purity measurement using reverse phase HPLC; settings: for Purity Measurement Using Reverse Phase HPLC, ED-71 peak / Purity Measurement Using Reverse Phase HPLC, Other peaks / Purity Measurement Using Reverse Phase HPLC, Pre Form peak: 265 nm
Method: as §1, §2, §3, §4
HPLC is carried out using 25 μl of the sample solution as prepared in “HPLC quantitative assay” above. • HPLC conditions used: • Column: Inertsil ODS-2 (5×250 mm) • Mobile phase: acetonitrile/water mixture (55/45) • Flow rate: 1 ml/min • Detection: at UV 265 and 220 nm.

[3] = Stability test of ED-71: absorbance measurement at 265 nm (E 1%); settings: absorbance at 265 nm
Method: as §1, §2, §3, §4
1 ml of the sample solution as prepared in “HPLC quantitative assay” above is diluted with absolute ethanol to give a whole volume of 10 ml and this diluted solution is then measured for the absorbance at 265 nm using a ultraviolet spectrophotometer. The absorbance is converted into E 1% value which is derived from Lambert-Beer Law and the conversion is made according to the following equation: E1%=A/cb wherein A is absorbance, c is concentration in g/100 ml and b is length of optical path in cm across the test solution, which is commonly 1. (4) Purity Measurement

C=C1/C(=C\C=C2/CCC[C@@]3(C)C2CC[C@@H]3[C@H](C)CCCC(C)(C)O)C[C@@H](O)[C@@H](OCCCO)[C@@H]1O (stereo partly drawn) [Amor., 1α,25-dihydroxy-2β-(3-hydroxypropoxy)vitamin D3]
HPLC Quantitative Assay (% Survivability) ([1]; 10° C., 1 M (air), dark): 97.4%
HPLC Quantitative Assay (% Survivability) ([1]; 10° C., 1 M, argon, dark): 94.8%
HPLC Quantitative Assay (% Survivability) ([1]; 10° C., 2 W, argon, dark): 98.5%
HPLC Quantitative Assay (% Survivability) ([1]; 10° C., time 0): 100%
HPLC Quantitative Assay (% Survivability) ([1]; 25° C., 1 W, argon, dark): 99.5%
HPLC Quantitative Assay (% Survivability) ([1]; 25° C., 2 W, argon, dark): 94.7%
HPLC Quantitative Assay (% Survivability) ([1]; 25° C., time 0): 100%
HPLC Quantitative Assay (% Survivability) ([1]; 40° C., 1 W, argon, dark): 99.4%
HPLC Quantitative Assay (% Survivability) ([1]; 40° C., 2 W, argon, dark): 88.8%
HPLC Quantitative Assay (% Survivability) ([1]; 40° C., time 0): 100%
220 nm (%), ED-71 peak ([2]; 10° C., 1 M (air), dark): 92.07%
220 nm (%), Other peaks ([2]; 10° C., 1 M (air), dark): 5.88%
220 nm (%), Pre Form peak ([2]; 10° C., 1 M (air), dark): 2.04%
220 nm (%), ED-71 peak ([2]; 10° C., 1 M, argon, dark): 92.85%
220 nm (%), Other peaks ([2]; 10° C., 1 M, argon, dark): 5.13%
220 nm (%), Pre Form peak ([2]; 10° C., 1 M, argon, dark): 2.02%
220 nm (%), ED-71 peak ([2]; 10° C., 2 W, argon, dark): 92.85%
220 nm (%), Other peaks ([2]; 10° C., 2 W, argon, dark): 5.13%
220 nm (%), Pre Form peak ([2]; 10° C., 2 W, argon, dark): 2.02%
220 nm (%), ED-71 peak ([2]; 10° C., time 0): 93.95%
220 nm (%), Other peaks ([2]; 10° C., time 0): 4.70%
220 nm (%), Pre Form peak ([2]; 10° C., time 0): 1.37%
220 nm (%), ED-71 peak ([2]; 25° C., 1 W, argon, dark): 93.37%
220 nm (%), Other peaks ([2]; 25° C., 1 W, argon, dark): 5.13%
220 nm (%), Pre Form peak ([2]; 25° C., 1 W, argon, dark): 1.50%
220 nm (%), ED-71 peak ([2]; 25° C., 2 W, argon, dark): 92.39%
220 nm (%), Other peaks ([2]; 25° C., 2 W, argon, dark): 5.68%
220 nm (%), Pre Form peak ([2]; 25° C., 2 W, argon, dark): 1.93%
220 nm (%), ED-71 peak ([2]; 25° C., time 0): 93.95%
220 nm (%), Other peaks ([2]; 25° C., time 0): 4.70%
220 nm (%), Pre Form peak ([2]; 25° C., time 0): 1.37%
220 nm (%), ED-71 peak ([2]; 40° C., 1 W, argon, dark): 90.00%
220 nm (%), Other peaks ([2]; 40° C., 1 W, argon, dark): 7.71%
220 nm (%), Pre Form peak ([2]; 40° C., 1 W, argon, dark): 2.29%
220 nm (%), ED-71 peak ([2]; 40° C., 2 W, argon, dark): 87.40%
220 nm (%), Other peaks ([2]; 40° C., 2 W, argon, dark): 9.72%
220 nm (%), Pre Form peak ([2]; 40° C., 2 W, argon, dark): 2.88%
220 nm (%), ED-71 peak ([2]; 40° C., time 0): 93.95%
220 nm (%), Other peaks ([2]; 40° C., time 0): 4.70%
220 nm (%), Pre Form peak ([2]; 40° C., time 0): 1.37%
Purity Measurement Using Reverse Phase HPLC, ED-71 peak ([2]; 10° C., 1 M (air), dark): 94.11 % P.A.R
Purity Measurement Using Reverse Phase HPLC, Other peaks ([2]; 10° C., 1 M (air), dark): 4.07 % P.A.R
Purity Measurement Using Reverse Phase HPLC, Pre Form peak ([2]; 10° C., 1 M (air), dark): 1.82 % P.A.R
Purity Measurement Using Reverse Phase HPLC, ED-71 peak ([2]; 10° C., 1 M, argon, dark): 93.05 % P.A.R
Purity Measurement Using Reverse Phase HPLC, Other peaks ([2]; 10° C., 1 M, argon, dark): 5.07 % P.A.R
Purity Measurement Using Reverse Phase HPLC, Pre Form peak ([2]; 10° C., 1 M, argon, dark): 1.88 % P.A.R
Purity Measurement Using Reverse Phase HPLC, ED-71 peak ([2]; 10° C., 2 W, argon, dark): 94.48 % P.A.R
Purity Measurement Using Reverse Phase HPLC, Other peaks ([2]; 10° C., 2 W, argon, dark): 3.77 % P.A.R
Purity Measurement Using Reverse Phase HPLC, Pre Form peak ([2]; 10° C., 2 W, argon, dark): 1.75 % P.A.R
Purity Measurement Using Reverse Phase HPLC, ED-71 peak ([2]; 10° C., time 0): 95.38 % P.A.R
Purity Measurement Using Reverse Phase HPLC, Other peaks ([2]; 10° C., time 0): 3.47 % P.A.R
Purity Measurement Using Reverse Phase HPLC, Pre Form peak ([2]; 10° C., time 0): 1.16 % P.A.R
Purity Measurement Using Reverse Phase HPLC, ED-71 peak ([2]; 25° C., 1 W, argon, dark): 94.78 % P.A.R
Purity Measurement Using Reverse Phase HPLC, Other peaks ([2]; 25° C., 1 W, argon, dark): 3.95 % P.A.R
Purity Measurement Using Reverse Phase HPLC, Pre Form peak ([2]; 25° C., 1 W, argon, dark): 1.27 % P.A.R
Purity Measurement Using Reverse Phase HPLC, ED-71 peak ([2]; 25° C., 2 W, argon, dark): 94.20 % P.A.R
Purity Measurement Using Reverse Phase HPLC, Other peaks ([2]; 25° C., 2 W, argon, dark): 4.08 % P.A.R
Purity Measurement Using Reverse Phase HPLC, Pre Form peak ([2]; 25° C., 2 W, argon, dark): 1.72 % P.A.R
Purity Measurement Using Reverse Phase HPLC, ED-71 peak ([2]; 25° C., time 0): 95.38 % P.A.R
Purity Measurement Using Reverse Phase HPLC, Other peaks ([2]; 25° C., time 0): 3.47 % P.A.R
Purity Measurement Using Reverse Phase HPLC, Pre Form peak ([2]; 25° C., time 0): 1.16 % P.A.R
Purity Measurement Using Reverse Phase HPLC, ED-71 peak ([2]; 40° C., 1 W, argon, dark): 92.47 % P.A.R
Purity Measurement Using Reverse Phase HPLC, Other peaks ([2]; 40° C., 1 W, argon, dark): 5.55 % P.A.R
Purity Measurement Using Reverse Phase HPLC, Pre Form peak ([2]; 40° C., 1 W, argon, dark): 1.98 % P.A.R
Purity Measurement Using Reverse Phase HPLC, ED-71 peak ([2]; 40° C., 2 W, argon, dark): 90.68 % P.A.R
Purity Measurement Using Reverse Phase HPLC, Other peaks ([2]; 40° C., 2 W, argon, dark): 6.78 % P.A.R
Purity Measurement Using Reverse Phase HPLC, Pre Form peak ([2]; 40° C., 2 W, argon, dark): 2.53 % P.A.R
Purity Measurement Using Reverse Phase HPLC, ED-71 peak ([2]; 40° C., time 0): 95.38 % P.A.R
Purity Measurement Using Reverse Phase HPLC, Other peaks ([2]; 40° C., time 0): 3.47 % P.A.R
Purity Measurement Using Reverse Phase HPLC, Pre Form peak ([2]; 40° C., time 0): 1.16 % P.A.R
E 1% ([3]; 10° C., 1 M (air), dark): 316.3
E 1% ([3]; 10° C., 1 M, argon, dark): 320.5
E 1% ([3]; 10° C., 2 W, argon, dark): 324.9
E 1% ([3]; 10° C., time 0): 327.5
E 1% ([3]; 25° C., 1 W, argon, dark): 323.0
E 1% ([3]; 25° C., 2 W, argon, dark): 316.9
E 1% ([3]; 25° C., time 0): 327.5
E 1% ([3]; 40° C., 1 W, argon, dark): 313.2
E 1% ([3]; 40° C., 2 W, argon, dark): 304.0
E 1% ([3]; 40° C., time 0): 327.5
